Here are results for 16 compounds from patent US10239851B2 (priority 2014, dated 2019).

Where two headings read alike, the source gives them in different places.

For data set [1] the following is noted: rabbit plasma, 37° C.; for Sampling time/dissociation percent (%) 15 s / Sampling time/dissociation percent (%) 30 s: formula F derivatives; for Sampling time/dissociation percent (%) 15 S / Sampling time/dissociation percent (%) 30 S: formula G derivatives.
Procedure: (§1) 0.1 ml samples were taken from each of the solutions, added respectively to 1 ml of blood plasma of rabbit (taken from New Zealand white rabbits, treated according to conventional methods, anticoagulated with heparin) or 1 ml of blood plasma of rat (taken from live SD rats, treated according to conventional methods, anticoagulated with heparin), homogeneously mixed, and placed in a thermostatic water bath at 37° C. for incubation with time being recorded. Samples were taken at different time points after the experiment began, and 2 ml of acetonitrile was immediately added. The samples were shaken and centrifuged for 5 min (15,000 rpm), and the supernatant was then taken for HPLC analysis.
The conditions of data set [2]: rat plasma, 37° C.
Procedure: as §1
Data set [3] in a line: In vitro dissociation of the water soluble taxane derivatives in blood plasma of rabbit. In kind it is in vitro ADME, New Zealand white rabbits. The settings on record: 37° C. On the procedure: The obtained water soluble taxane derivatives were formulated as 0.2 mg/ml aqueous solutions. […] After 5 min, 20 min and 60 min of incubation, 0.2 ml of solutions were respectively taken from each of the samples, and added to acetonitrile (0.4 ml) cooled to −20° C. for precipitation of protein.

Data set [4] can be described thus: In vitro dissociation of the water soluble taxane derivatives in blood plasma of rat. The settings on record: 37° C. In kind it is in vitro ADME, SD rats. The method, then:
The obtained water soluble taxane derivatives were formulated as 0.2 mg/ml aqueous solutions. […] After 2 min, 5 min and 10 min of incubation, 0.2 ml of solutions were respectively taken from each of the samples, and added to acetonitrile (0.4 ml) cooled to −20° C. for precipitation of protein.

Data set [5] has as its system human ovarian cancer SK-OV-3. The note with it: 24 mg/kg (paclitaxel 16 mg/kg) D0-4 IV; for Tumor inhibitory percent (%) D22: P=0.000 compared to the control.
Source text: Test of the inhibitory activity of the water soluble paclitaxel derivatives on subcutaneously xenografted tumor of human ovarian cancer SK-OV-3 in nude mice: evaluating and comparing the inhibitory activity of the water soluble paclitaxel derivatives of the present invention, paclitaxel and Abraxane® on subcutaneously xenografted tumor of human ovarian cancer SK-OV-3 in nude mice.
Human ovarian cancer SK-OV-3 cells were subcutaneously inoculated to nude mice. After the tumor volume reached 100-150 mm^3, the animals were randomly divided into groups (D0), and administered with the water soluble paclitaxel derivatives of the present invention, paclitaxel, and Abraxane®, respectively once per day for 5 days. The tumor volume was measured 2-3 times per week, the animals were weighed and the data were recorded until day 22 (D22) after grouping.
The tumor volume (V) was calculated according to the equation: V=½×a×b^2, wherein a and b represent the length and the width, respectively.
T/C (%)=(T−T0)/(C−C0)×100, wherein T and C represent the tumor volume at the end of the experiment; and T0 and C0 represent the tumor volume at the beginning of the experiment.
Where [6] appears, read: formula F derivatives, sampling time 15 s.

As to `CC(C)c1cccc(C(C)C)c1OC(=O)[C@@H](CCN(C)C)C(F)(F)F.Cl` [Compound E3, propofol 4-(N,N-dimethyl)amino-2(R)-2-trifluoromethylbutyrate hydrochloride], the dissociation percent in data set [1] (15 s) came out at 51.7%; in data set [1] (30 s), 67.2%; in data set [2] (5 s), 77.5%.
As for `CC(C)c1cccc(C(C)C)c1OC(=O)[C@@H](F)CCCN(C)Cc1ccccc1.Cl` [Compound E5, propofol 5-(N-methyl-N-benzyl)amino-2(S)-2-fluorovalerate hydrochloride], the dissociation percent came out at 48.4% in data set [1] (15 s), 69.7% in data set [1] (30 s), 72.3% in data set [2] (5 s) and 97.3% in data set [2] (15 s).
As for `CC(C)c1cccc(C(C)C)c1OC(=O)C(F)CCCC(=O)[O-].CC(C)c1cccc(C(C)C)c1OC(=O)C(F)CCCC(=O)[O-].[Zn+2]` [Compound F5, di[propofol 5-carboxyl-2(S)-fluorohexanoate] zinc salt], in data set [1], the “Sampling time/dissociation percent (%) 15 s” value is 34.9% and the “Sampling time/dissociation percent (%) 30 s” value came out at 58.8%. In addition, the “Sampling time/dissociation percent (%) 5 s” value in data set [2] (formula F derivatives) worked out at 63.2%. In addition, in data set [2] (setting [6]), the “Sampling time/dissociation percent (%) 15 s” value is 80.3%.
As to `CC(C)c1cccc(C(C)C)c1OC(=O)C(F)CCCCCC(=O)[O-].CC(C)c1cccc(C(C)C)c1OC(=O)C(F)CCCCCC(=O)[O-].[Ca+2]` (racemic) [Compound F4, di[propofol 7-carboxyl-2(R,S)-fluorocaprylate] calcium salt], in data set [1], the “Sampling time/dissociation percent (%) 15 s” value worked out at 48.3% and the “Sampling time/dissociation percent (%) 30 s” value was determined as 61.7%. The “Sampling time/dissociation percent (%) 5 s” value in data set [2] (formula F derivatives) was 63.8%.
Regarding `CC(C)c1cccc(C(C)C)c1OC(=O)C(F)CCN(C)C.Cl` (racemic) [Compound E1, Propofol 4-(N,N-dimethyl)amino-2(R,S)-fluorobutyrate Hydrochloride], the dissociation percent is reported as 67.5% in data set [1] (15 s); 85.5% in data set [1] (30 s); 75.1% in data set [2] (5 s); 83.2% in data set [2] (15 s); 96.7% in data set [2] (30 s).
For the compound `CC(C)c1cccc(C(C)C)c1OC(=O)[C@@H](F)CCN1CC1.Cl` [Compound E7, propofol 4-N-(aziridin-1-yl)-2(S)-2-fluorobutyrate hydrochloride], the values for the dissociation percent in data set [1] (15 s), in data set [1] (30 s) and in data set [2] (5 s) were 89.4%, 94.4% and 92.3%, respectively.
On to `CC(=O)O[C@H]1C(=O)[C@@]2(C)[C@H]([C@H](OC(=O)c3ccccc3)[C@]3(O)C[C@H](OC(=O)[C@H](OC(=O)[C@@H](F)CCN(C)C)[C@@H](NC(=O)c4ccccc4)c4ccccc4)C(C)=C1C3(C)C)[C@]1(OC(C)=O)CO[C@@H]1C[C@@H]2O.CS(=O)(=O)O` [Compound C2, 2′-O-[4-(N,N-dimethyl)amino-2(S)-fluorobutyryl]paclitaxel methanesulfonate], for which the dissociation percent is listed as 69.7% in data set [3] (5 min); 98.1% in data set [3] (20 min); 100% in data set [3] (60 min); 62.8% in data set [4] (2 min); 96.5% in data set [4] (5 min); 100% in data set [4] (10 min). In addition, the “Weight change (%) D4” value in data set [5] is given as −5.8%. For the same compound, the “T/C (%) D22” value in data set [5] is reported as −61%. In addition, the “Tumor volume (D22)” value in data set [5] turned out to be 51.2 ± 11.2 mm^3. For the same compound, the “Tumor inhibitory percent (%) D22” value in data set [5] came to 158%.
Regarding `CC(C)NCC(CF)C(=O)Oc1c(C(C)C)cccc1C(C)C.CS(=O)(=O)O` (racemic) [Compound E6, propofol 3-(N-isopropyl)amino-2(R,S)-2-monofluoromethylpropionate methanesulfonate], the dissociation percent was 27.1% in data set [1] (15 s), 44.3% in data set [1] (30 s), 24.2% in data set [2] (5 s) and 40.1% in data set [2] (15 s).
Regarding `CC(C)c1cccc(C(C)C)c1OC(=O)C(CCC(=O)[O-])C(F)(F)F.[Li+]` [Compound F3, propofol 4-carboxyl-2(R)-2-trifluoromethyl valerate lithium salt], in data set [1], the “Sampling time/dissociation percent (%) 15 s” value is 28.4% and the “Sampling time/dissociation percent (%) 30 s” value was determined as 47.9%. In addition, in data set [2] (formula F derivatives), the “Sampling time/dissociation percent (%) 5 s” value worked out at 47.4%.
Consider `CC(C)c1cccc(C(C)C)c1OC(=O)C(F)C(=O)[O-].[Na+]` [Compound F8, propofol 2-carboxyl-2(S)-fluoropropionate sodium salt], for which the figures for the “Sampling time/dissociation percent (%) 15 s” value in data set [1] and in data set [2] (setting [6]) were 41.2% and 69.3%, respectively. Also, the “Sampling time/dissociation percent (%) 30 s” value in data set [1] came to 70.4%; in data set [2] (formula F derivatives, sampling time 30 s), 83.3%. Moreover, in data set [2] (formula F derivatives), the “Sampling time/dissociation percent (%) 5 s” value is given as 55.5%.
For `CC(C)c1cccc(C(C)C)c1OC(=O)[C@@H](CCOP(=O)([O-])[O-])C(F)(F)F.[Li+].[Li+]` [Compound G3, {1-[4-(2,6-diisopropylphenoxy)-4-oxo-3-(R)-3-trifluoromethyl-1-butyl]} phosphate monoester dilithium salt], in data set [1], the “Sampling time/dissociation percent (%) 15 S” value was 21.7% and the “Sampling time/dissociation percent (%) 30 S” value is 43.6%. Besides, the “Sampling time/dissociation percent (%) 5 S” value in data set [2] (formula G derivatives) is reported as 38.7%.
For `CC(C)c1cccc(C(C)C)c1OC(=O)C(CF)CCCCCCC(=O)[O-].CC(C)c1cccc(C(C)C)c1OC(=O)C(CF)CCCCCCC(=O)[O-].CC(C)c1cccc(C(C)C)c1OC(=O)C(CF)CCCCCCC(=O)[O-].[Al+3]` (racemic) [Compound F6, tri[propofol 8-carboxyl-2(R,S)-monofluoromethylpelargonate] aluminum salt], in data set [1], the “Sampling time/dissociation percent (%) 15 s” value stood at 37.1% and the “Sampling time/dissociation percent (%) 30 s” value was determined as 58.3%. In addition, in data set [2] (formula F derivatives), the “Sampling time/dissociation percent (%) 5 s” value stood at 34.2%. Further, in data set [2] (setting [6]), the “Sampling time/dissociation percent (%) 15 s” value came out at 55.7%.
As for `CC(=O)O[C@H]1C(=O)[C@@]2(C)[C@H]([C@H](OC(=O)c3ccccc3)[C@]3(O)C[C@H](OC(=O)[C@H](OC(=O)C(F)CCN(C)C)[C@@H](NC(=O)c4ccccc4)c4ccccc4)C(C)=C1C3(C)C)[C@]1(OC(C)=O)CO[C@@H]1C[C@@H]2O.CS(=O)(=O)O` (stereo partly drawn) [Compound C3, 2′-O-[4-(N,N-dimethyl)amino-2(R,S)-fluorobutyryl]paclitaxel methanesulfonate], the dissociation percent in data set [3] (5 min) amounted to 76.5%; in data set [3] (20 min) it was 94.6%; in data set [3] (60 min), 100%; in data set [4] (2 min) it was 63.7%; in data set [4] (5 min), 96.8%; in data set [4] (10 min), 100%. For the same compound, the “Weight change (%) D4” value in data set [5] is −6.0%. Moreover, the “T/C (%) D22” value in data set [5] is −64%. Further, in data set [5], the “Tumor volume (D22)” value is given as 50.6 ± 9.7 mm^3. In addition, the “Tumor inhibitory percent (%) D22” value in data set [5] turned out to be 165%.
`CC(C)c1cccc(C(C)C)c1OC(=O)C(CF)CP(=O)([O-])[O-].CC(C)c1cccc(C(C)C)c1OC(=O)C(CF)CP(=O)([O-])[O-].CC(C)c1cccc(C(C)C)c1OC(=O)C(CF)CP(=O)([O-])[O-].[Al+3].[Al+3]` (racemic) [Compound G6, tri[propofol 3-phosphoryl-2(R,S)-2-monofluoromethylpropionate] dialuminum salt]: in data set [1], the “Sampling time/dissociation percent (%) 15 S” value turned out to be 27.1% and the “Sampling time/dissociation percent (%) 30 S” value was 44.3%. Moreover, the “Sampling time/dissociation percent (%) 5 S” value in data set [2] (formula G derivatives) is reported as 22.1%. In addition, in data set [2] (formula G derivatives, sampling time 15 s), the “Sampling time/dissociation percent (%) 15 S” value was determined as 39.7%.
`CCN(C)CCC(F)C(=O)Oc1c(C(C)C)cccc1C(C)C.Cl` (racemic) [Compound E4, propofol 4-(N-methyl-N-ethyl)amino-2(R,S)-2-fluorobutyrate hydrochloride]: the results for the dissociation percent in data set [1] (15 s), in data set [1] (30 s) and in data set [2] (5 s) were 58.3%, 70.4% and 70.2%, respectively.
Regarding `CC(=O)O[C@H]1C(=O)[C@@]2(C)[C@H]([C@H](OC(=O)c3ccccc3)[C@]3(O)C[C@H](OC(=O)[C@H](OC(=O)[C@H](F)CCN(C)C)[C@@H](NC(=O)c4ccccc4)c4ccccc4)C(C)=C1C3(C)C)[C@]1(OC(C)=O)CO[C@@H]1C[C@@H]2O.CS(=O)(=O)O` [Compound C1, 2′-O-[4-(N,N-dimethyl)amino-2(R)-fluorobutyryl]paclitaxel methanesulfonate], the dissociation percent in data set [3] (5 min) is 77.2%; in data set [3] (20 min) it was 98.4%; in data set [3] (60 min) it was 100%; in data set [4] (2 min), 64.3%; in data set [4] (5 min), 97.0%; in data set [4] (10 min) it was 100%. The “Tumor volume (D0)” value in data set [5] (D0, at grouping) amounted to 133.6 ± 9.5 mm^3. In data set [5], the “Weight change (%) D4” value was −5.9%. For the same compound, the “T/C (%) D22” value in data set [5] is on record as −63%. In addition, the “Tumor inhibitory percent (%) D22” value in data set [5] is recorded as 163%.
